Patent US9925205B2, “Compositions of multicationic drugs for reducing interactions with polyanionic biomolecules and methods of use thereof” (Insmed Incorporated, priority 2007, dated 2018)
Several values for one entry are separate records, joined by “and”; a condition that tells them apart may be missing. Equal values may be shown once. Where a name gives a salt, the structure may show the parent alone.

Columns and labels:
[1] = Effect of mono- and multi-protonic acid salts on binding of amikacin to alginate
Protocol: Various salts were tested for their ability to compete with alginate. Amikacin sulfate (0.1 mL of 1 mg/ml) was added to 0.4 mL solution of 1% Na Alginate and 0.5 mL solution of 200 mM Na salt of an Acid at pH 6.0. Samples were incubated 10 minutes at 37° C. and centrifuged in Centricon-10 for 30 minutes at 4000 rpm. Filtrate was diluted 2 fold with TDX buffer and analyzed for AMK.

[2] = Effect of pH on ability of citrate to compete with alginate for amikacin (Centricon-10, TDX); type: binding
P. Aeruginosa PAC1 = experiment: In-vitro bioactivity of amikacin, modified disk Kirby-Bauer agar diffusion method; type: cell-based; settings: for Zone size (mm): three values
Protocol: It has been shown elsewhere […] that amikacin-alginate binding can in fact reduce amikacin bioactivity against PA. One may ask whether binding to citrate will preserve bioactivity or inhibit it similar to alginate. In order to address this, activity of amikacin against P. Aeruginosa PAC1 using modified disk Kirby-Bauer agar diffusion method was tested. […] Absence of supplements was used as a control.
Activity was determined using modified disk Kirby-Bauer agar diffusion method and PAC1 PA strain.

[3] = Binding of amikacin to alginate in saline, free amikacin separated on Centricon-10 filter; settings: for AMKAlg (bound amikacin, AMKt-AMKf) / AMKAlg/AMKf / AMKfree: saline, no citrate; for AMKfree: total amikacin 92.5 ug/mL
Protocol: (§1) The binding of a multicationic drug, such as amikacin, to alginate in presence salts of various (one-, two- and three-protonic) acids was tested. To study the effect of binding of amikacin to alginate, amikacin sulfate, Na citrate and Na alginate were mixed at different proportions and then free (unbound) amikacin was separated on a Cetricon-10 filtering device (MWCO 10 kD). In the absence of citrate, amikacin binds to alginate only, and the amikacin-alginate binding coefficient can be calculated from equation:
[formula] where bound amikacin can be found by subtracting free from total, and alginate free concentration is assumed to be equal to the total concentration due to excess of alginate over amikacin.
As alginate concentration increases, amikacin free measured in permeate decreases (Table 1). According to Equation 1 the ratio AMKAlg/AMKf should be proportional to the concentration of alginate, and the slope of this dependence should equal to the binding coefficient.
If one use a linear regression, the slope obtained gives us an estimate of the amikacin-alginate binding coefficient of PAlg=0.76 (mg/mL)^−1. This means that in presence of 1/PAlg˜1.3 mg/mL alginate approximately half of all amikacin will be bound to alginate.

[4] = Effect of pH on ability of citrate to compete with alginate for amikacin (Centricon-10, TDX); type: binding; remark: listed apart in the source
Protocol: How pH affects the ability of citrate to compete with alginate for amikacin was also tested. Here 0.5 mL sodium alginate (2%) was mixed with 0.4 mL sodium citrate (200 mM) and 0.1 mL amikacin sulfate (1 mg/mL), giving corresponding final concentrations of 1%, 80 mM, and 100 ug/mL, respectively. Two controls using either alginate or citrate alone were employed. Samples were incubated for 10 minutes at 37° C. and unbound amikacin was separated by centrifuging in Centrico-10 device for 30 minutes at 4000 rpm. Amikacin in permeate was measured by TDX (Abbott) and presented as % of total (Table 3).

[5] = Amikacin-citrate binding determined indirectly from competitive binding with alginate (Centricon filter); set-up: AMKAlg (AMKtot—AMKperm) / AMKfree / AMKcitrate: unit not given here
Protocol: as §1, with “equation: […]” for “equation:”
In the presence of citrate, amikacin can bind to both alginate and citrate. The amikacin-citrate complex is not large enough to be retained by Centricon filter and will be measured as “free” amikacin, which is actually a sum of free and citrate bound amikacin. For that reason amikacin-citrate binding can not be measured directly. It can, however, be determined indirectly from competitive binding, knowing amikacin-alginate binding coefficient PAlg.
Amikacin-citrate binding coefficient was Pcit=0.076 mM^−1. Thus in the presence of 1/Pcit˜13 mM citrate the concentration of amikacin bound to citrate is approximately equal to the concentration of free amikacin. As one can see from the above data, citrate can compete for amikacin with alginate thus reducing amount of amikacin bound to alginate. 1% Alginate can reduce AMK free concentration ˜7-fold. Citrate at 40 mM reduces this effect increasing unbound AMK ˜2.5 fold.

[6] = 0.1 mL 1 mg/ml amikacin sulfate + 0.4 mL 1% Na Alginate + 0.5 mL 200 mM Na salt of the acid, pH 6.0, 10 minutes at 37° C.
[7] = Alginate 1%, 80 mM Citrate at pH 6-7
[8] = alginate 6 mg/mL, citrate 60 mM
[9] = alginate 10 mg/mL, citrate 40 mM
[10] = alginate 14 mg/mL, citrate 20 mM
[11] = alginate 16 mg/mL, citrate 10 mM

Molecule: CC(=O)[O-].[Na+] [Sodium acetate]
- Amikacin not bound to alginate (%) [1, 6]: 11.2%
- effect of the salt on unbound amikacin (in words) ([1]; as Table 4): not showing any increase in unbound amikacin

Molecule: O=C(O)CC(O)(CC(=O)O)C(=O)O [Sodium citrate]
- Amikacin not bound to alginate (%) [1, 6]: 72.1%

Molecule: O=C([O-])CCCC(=O)[O-].[Na+].[Na+] [Sodium glutarate]
- Amikacin not bound to alginate (%) [1, 6]: 36.7%
- Amikacin not bound to alginate (%) ([1]; 0.1 mL 1 mg/ml amikacin sulfate + 0.4 mL 1% Na Alginate + 0.5 mL 200 mM Na salt of the acid, pH 6.0, 10 minutes at 37° C., listed as glutarate): ~40%

Molecule: O=C([O-])/C=C\C(=O)[O-].[Na+].[Na+] [Sodium maleate]
- Amikacin not bound to alginate (%) [1, 6]: 39.4%
- Amikacin not bound to alginate (%) ([1]; 0.1 mL 1 mg/ml amikacin sulfate + 0.4 mL 1% Na Alginate + 0.5 mL 200 mM Na salt of the acid, pH 6.0, 10 minutes at 37° C., listed as maleate): ~40%

Molecule: O=C([O-])CCC(=O)[O-].[Na+].[Na+] [Sodium succinate]
- Amikacin not bound to alginate (%) [1, 6]: 40.2%
- Amikacin not bound to alginate (%) ([1]; 0.1 mL 1 mg/ml amikacin sulfate + 0.4 mL 1% Na Alginate + 0.5 mL 200 mM Na salt of the acid, pH 6.0, 10 minutes at 37° C., listed as succinate): ~40%

Molecule: NCC[C@H](O)C(=O)N[C@@H]1C[C@H](N)[C@@H](O[C@H]2O[C@H](CN)[C@@H](O)[C@H](O)[C@H]2O)[C@H](O)[C@H]1O[C@H]1O[C@H](CO)[C@@H](O)[C@H](N)[C@H]1O [amikacin]
- Amikacin not bound to alginate (%) ([2]; Alg, no Citrate, AMK 0.5 mg/mL): 14.5%
- Alginate binding efficiency ([2]; no citrate, total amikacin 0.5 mg/mL): 85.5%
- Zone size (mm) (P. Aeruginosa PAC1; Alginate 1%): 21 mm
- Zone size (mm) (P. Aeruginosa PAC1; Alginate + Citrate): 28 mm and 29 mm
- Zone size (mm) (P. Aeruginosa PAC1; Citrate 100 mM): 28 mm
- effect on activity of amikacin (in words) (P. Aeruginosa PAC1; Citrate at concentration 100 mM): does not affect activity
- Zone size (mm) (P. Aeruginosa PAC1; Control, MH medium without supplements): 28 mm and 29 mm
- effect on activity of amikacin (in words) (P. Aeruginosa PAC1; both alginate and citrate present): citrate actually restored activity of amikacin
- 1/PAlg, alginate concentration at which approximately half of all amikacin is bound to alginate [3]: ~1.3 mg/mL
- reduction of AMK free concentration by alginate ([3]; 1% Alginate): ~7 fold
- AMKAlg (bound amikacin, AMKt-AMKf) ([3]; alginate 0 mg/mL): 0 µg/mL
- AMKAlg/AMKf ([3]; alginate 0 mg/mL): 0
- AMKfree ([3]; alginate 0 mg/mL): 92.5 µg/mL
- AMKAlg (bound amikacin, AMKt-AMKf) ([3]; alginate 6 mg/mL): 72.5 µg/mL
- AMKAlg/AMKf ([3]; alginate 6 mg/mL): 3.63
- AMKfree ([3]; alginate 6 mg/mL): 20 µg/mL
- AMKAlg (bound amikacin, AMKt-AMKf) ([3]; alginate 10 mg/mL): 79.9 µg/mL
- AMKAlg/AMKf ([3]; alginate 10 mg/mL): 6.34
- AMKfree ([3]; alginate 10 mg/mL): 12.6 µg/mL
- AMKAlg (bound amikacin, AMKt-AMKf) ([3]; alginate 14 mg/mL): 84.5 µg/mL
- AMKAlg/AMKf ([3]; alginate 14 mg/mL): 10.56
- AMKfree ([3]; alginate 14 mg/mL): 8 µg/mL
- AMKAlg (bound amikacin, AMKt-AMKf) ([3]; alginate 16 mg/mL): 86 µg/mL
- AMKAlg/AMKf ([3]; alginate 16 mg/mL): 13.23
- AMKfree ([3]; alginate 16 mg/mL): 6.5 µg/mL
- PAlg AMK-Alginate binding coefficient ([3]; slope of AMKAlg/AMKf vs alginate concentration, linear regression): 0.76 (mg/ml)^−1
- binding capacity of alginate [4]: at least 0.05 mg amikacin per mg alginate
- Amikacin not bound to alginate (%) ([4]; Alg + Citrate pH 5, alginate 1%, citrate 80 mM, amikacin 100 ug/mL): 56.4%
- Amikacin not bound to alginate (%) ([4]; Alg + Citrate pH 6, alginate 1%, citrate 80 mM, amikacin 100 ug/mL): 70.4%
- Amikacin not bound to alginate (%) ([4]; Alg + Citrate pH 7, alginate 1%, citrate 80 mM, amikacin 100 ug/mL): 68.1%
- Amikacin not bound to alginate (%) ([4]; Alg, no Citrate, alginate 1%, amikacin 100 ug/mL): 11.9%
- Amikacin not bound to alginate (%) ([4]; Alg, no Citrate, alginate 1%, amikacin 100 ug/mL, listed as AMK): 12%
- AMK binding to alginate [4, 7]: ~30%
- unbound AMK [4, 7]: ~70%
- AMK bound by alginate ([4]; Alginate 1%, absence of citrate): ~88%
- Amikacin not bound to alginate (%) ([4]; Citrate, no Alginate): 100%
- Amikacin not bound to alginate (%) ([1]; Control (no acid salt named)): 17.7%
- 1/Pcit, citrate concentration at which amikacin bound to citrate approximately equals free amikacin [5]: ~13 mM
- increase of unbound AMK by citrate ([5]; Citrate at 40 mM, 1% Alginate): ~2.5 fold
- AMKAlg (AMKtot—AMKperm) ([5]; alginate 0 mg/mL, citrate 0 mM): 0
- AMKcit/AMKf ([5]; alginate 0 mg/mL, citrate 0 mM): 0
- AMKcitrate ([5]; alginate 0 mg/mL, citrate 0 mM): 0
- AMKfree ([5]; alginate 0 mg/mL, citrate 0 mM): 92.5
- AMKperm ([5]; alginate 0 mg/mL, citrate 0 mM): 92.5 µg/mL
- AMKAlg (AMKtot—AMKperm) [5, 8]: 40.9
- AMKcit/AMKf [5, 8]: 4.72
- AMKcitrate [5, 8]: 42.59
- AMKfree [5, 8]: 9.01
- AMKperm [5, 8]: 51.6 µg/mL
- AMKAlg (AMKtot—AMKperm) [5, 9]: 60.5
- AMKcit/AMKf [5, 9]: 3.00
- AMKcitrate [5, 9]: 24.00
- AMKfree [5, 9]: 8.00
- AMKperm [5, 9]: 32.0 µg/mL
- AMKAlg (AMKtot—AMKperm) [5, 10]: 77
- AMKcit/AMKf [5, 10]: 1.13
- AMKcitrate [5, 10]: 8.23
- AMKfree [5, 10]: 7.27
- AMKperm [5, 10]: 15.5 µg/mL
- AMKAlg (AMKtot—AMKperm) [5, 11]: 82.4
- AMKcit/AMKf [5, 11]: 0.48
- AMKcitrate [5, 11]: 3.29
- AMKfree [5, 11]: 6.81
- AMKperm [5, 11]: 10.1 µg/mL
- Pcit AMK-Citrate binding coefficient ([5]; slope of AMKcit/AMKf vs citrate concentration): 0.076 mM⁻¹

Molecule: Sodium tartarate
- Amikacin not bound to alginate (%) [1, 6]: 41.4%
- Amikacin not bound to alginate (%) ([1]; 0.1 mL 1 mg/ml amikacin sulfate + 0.4 mL 1% Na Alginate + 0.5 mL 200 mM Na salt of the acid, pH 6.0, 10 minutes at 37° C., listed as taratrate): ~40%
